Values quoted from earlier work in article PMC13612640 (Cancer Chemotherapy and Pharmacology, 2026).

Parameters: method as in PMID 41165508

Plasma fraction unbound (fu): 0.046
SMILES: COc1ccc(F)cc1C(=O)NCc1ccc(-c2nn([C@@H](C)C(F)(F)F)c(N)c2C(N)=O)cc1 [pirtobrutinib]
